One assay addresses T1, PI3k δ (Homo sapiens, UniProt O00329).
T1 construct: Full length p110 subunits of PI3k α, β and δ; polyHis (N); made in house; host or cells: Sf9 insect cells (baculovirus)
Nature of the assay: biochemical. It counts as biochemical. As to conditions: read-out: PI3k δ Ki. The protocol:
Full length p110 subunits of PI3k α, β and δ, N-terminally labeled with polyHis tag, were coexpressed with p85 with Baculo virus expression vectors in sf9 insect cells. P110/p85 heterodimers were purified by sequential Ni-NTA, Q-HP, Superdex-100 chromatography. Purified α, β and δ isozymes were stored at −20° C. in 20 mM Tris, pH 8, 0.2M NaCl, 50% glycerol, 5 mM DTT, 2 mM Na cholate. […] The γ isozyme was purified by sequential Ni-NTA, Superdex-200, Q-HP chromatography. The γ isozyme was stored frozen at −80° C. in NaH2PO4, pH 8, 0.2M NaCl, 1% ethylene glycol, 2 mM β-mercaptoethanol.
Phospatidyl inositol phosphoacceptor, Ptdlns(4,5)P2 P4508, was from Echelon Biosciences. […] Test compounds were dissolved in dimethyl sulfoxide and diluted with three-fold serial dilutions. The compound in DMSO (1 μL) was added per test well, and the inhibition relative to reactions containing no compound, with and without enzyme was determined. After assay incubation at rt, the reaction was stopped and residual ATP determined by addition of an equal volume of a commercial ATP bioluminescence kit (Perkin Elmer EasyLite) according to the manufacturer's instructions, and detected using a AnalystGT luminometer.

Assay [1] concerns mouse model of rheumatoid arthritis. To be noted: in vivo; cited from earlier work.
In assay [2] the test system is model of systemic lupus erythematosis. As to conditions: in vivo; cited from earlier work.
The next assay has as its target p110δ (Homo sapiens, UniProt O00329). As to conditions: cited from earlier work.
The test system of a further assay is murine model of asthma. To be noted: ovalbumin-induced airway inflammation; cited from earlier work.
The next assay deals with protein kinases. As to conditions: cited from earlier work.
The subject of assay [3] is Class I PI3 kinase isoforms. As to conditions: cited from earlier work.
For a further assay, the target named is P110β (Homo sapiens, UniProt P42338). As to conditions: cited from earlier work.

Values joined by “and” are separate entries in the source; they are usually repeats but may differ in a detail not shown here. Identical values can stand only once.

T1 sequence (O00329 whole entry): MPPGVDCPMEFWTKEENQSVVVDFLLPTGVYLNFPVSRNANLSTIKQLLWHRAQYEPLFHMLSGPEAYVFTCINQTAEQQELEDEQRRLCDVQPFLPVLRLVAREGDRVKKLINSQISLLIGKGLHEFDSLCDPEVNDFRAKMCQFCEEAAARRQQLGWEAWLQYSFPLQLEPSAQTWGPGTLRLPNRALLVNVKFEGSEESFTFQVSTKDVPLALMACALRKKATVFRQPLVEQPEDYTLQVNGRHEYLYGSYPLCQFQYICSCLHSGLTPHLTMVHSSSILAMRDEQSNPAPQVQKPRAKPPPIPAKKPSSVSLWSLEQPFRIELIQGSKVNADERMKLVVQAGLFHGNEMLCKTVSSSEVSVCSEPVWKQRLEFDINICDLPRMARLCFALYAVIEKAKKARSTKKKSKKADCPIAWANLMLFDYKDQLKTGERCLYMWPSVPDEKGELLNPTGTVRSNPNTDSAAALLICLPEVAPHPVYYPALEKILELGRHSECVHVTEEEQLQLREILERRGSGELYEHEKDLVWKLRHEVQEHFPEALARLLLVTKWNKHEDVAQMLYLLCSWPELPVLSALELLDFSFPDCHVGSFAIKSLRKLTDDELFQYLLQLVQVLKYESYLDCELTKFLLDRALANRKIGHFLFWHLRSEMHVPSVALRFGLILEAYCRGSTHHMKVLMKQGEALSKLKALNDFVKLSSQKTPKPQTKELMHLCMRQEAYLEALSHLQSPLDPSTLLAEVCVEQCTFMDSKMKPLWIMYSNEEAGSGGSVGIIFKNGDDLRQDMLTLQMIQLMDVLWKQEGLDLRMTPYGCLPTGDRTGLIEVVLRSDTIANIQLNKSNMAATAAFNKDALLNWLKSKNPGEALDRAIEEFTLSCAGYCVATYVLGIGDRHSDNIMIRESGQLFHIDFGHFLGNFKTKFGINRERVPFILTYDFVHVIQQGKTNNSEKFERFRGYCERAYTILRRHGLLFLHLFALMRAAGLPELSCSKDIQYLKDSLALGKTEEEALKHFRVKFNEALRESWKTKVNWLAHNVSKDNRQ
T1 sequence (P27986 whole entry partner): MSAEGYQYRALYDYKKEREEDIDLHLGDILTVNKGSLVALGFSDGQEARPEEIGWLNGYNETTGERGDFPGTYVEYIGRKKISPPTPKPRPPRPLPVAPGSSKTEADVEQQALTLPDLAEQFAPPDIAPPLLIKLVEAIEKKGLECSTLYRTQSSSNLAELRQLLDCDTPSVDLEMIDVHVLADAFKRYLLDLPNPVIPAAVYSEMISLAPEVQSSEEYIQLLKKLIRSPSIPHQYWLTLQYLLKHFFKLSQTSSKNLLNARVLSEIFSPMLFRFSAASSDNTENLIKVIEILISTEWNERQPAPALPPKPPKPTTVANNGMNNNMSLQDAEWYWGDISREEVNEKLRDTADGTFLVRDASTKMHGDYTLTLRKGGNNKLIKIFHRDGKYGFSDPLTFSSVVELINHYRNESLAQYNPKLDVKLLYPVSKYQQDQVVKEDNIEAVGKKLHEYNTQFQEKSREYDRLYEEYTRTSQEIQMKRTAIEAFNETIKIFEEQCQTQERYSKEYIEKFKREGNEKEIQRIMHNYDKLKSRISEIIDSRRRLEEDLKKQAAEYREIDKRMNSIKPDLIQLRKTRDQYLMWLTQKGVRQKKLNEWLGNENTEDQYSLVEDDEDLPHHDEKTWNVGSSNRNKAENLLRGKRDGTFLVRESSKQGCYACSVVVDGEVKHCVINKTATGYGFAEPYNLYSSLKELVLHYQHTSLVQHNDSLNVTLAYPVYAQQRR
Sequence of P110β (P42338 whole entry): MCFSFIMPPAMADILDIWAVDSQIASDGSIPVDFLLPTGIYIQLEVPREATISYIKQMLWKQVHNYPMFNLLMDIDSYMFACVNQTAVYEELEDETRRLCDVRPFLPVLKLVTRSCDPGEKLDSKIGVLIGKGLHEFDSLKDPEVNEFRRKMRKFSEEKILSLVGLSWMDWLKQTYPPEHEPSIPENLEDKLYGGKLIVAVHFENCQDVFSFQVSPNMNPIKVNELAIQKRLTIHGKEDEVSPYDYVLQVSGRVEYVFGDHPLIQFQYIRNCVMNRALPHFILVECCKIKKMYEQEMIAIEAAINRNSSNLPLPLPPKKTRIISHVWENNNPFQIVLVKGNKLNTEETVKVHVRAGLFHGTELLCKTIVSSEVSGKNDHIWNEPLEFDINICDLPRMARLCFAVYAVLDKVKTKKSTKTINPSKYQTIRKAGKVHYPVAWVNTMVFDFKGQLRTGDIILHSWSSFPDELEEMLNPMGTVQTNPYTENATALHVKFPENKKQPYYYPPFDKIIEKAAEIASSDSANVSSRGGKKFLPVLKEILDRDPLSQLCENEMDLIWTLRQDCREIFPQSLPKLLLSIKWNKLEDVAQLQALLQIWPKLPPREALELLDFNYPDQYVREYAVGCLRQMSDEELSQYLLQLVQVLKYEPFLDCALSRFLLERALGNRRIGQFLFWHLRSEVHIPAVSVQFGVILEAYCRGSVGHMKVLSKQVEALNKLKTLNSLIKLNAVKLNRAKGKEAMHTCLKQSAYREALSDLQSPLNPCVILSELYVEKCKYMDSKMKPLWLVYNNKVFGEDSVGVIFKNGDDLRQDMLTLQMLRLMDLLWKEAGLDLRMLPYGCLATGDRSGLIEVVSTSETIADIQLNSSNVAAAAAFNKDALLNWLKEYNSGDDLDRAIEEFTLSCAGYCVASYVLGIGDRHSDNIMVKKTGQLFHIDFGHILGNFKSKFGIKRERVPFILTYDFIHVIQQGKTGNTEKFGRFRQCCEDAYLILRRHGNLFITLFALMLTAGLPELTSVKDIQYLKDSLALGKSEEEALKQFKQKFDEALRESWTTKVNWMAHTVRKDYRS
Sequence of P110β (P27986 whole entry partner): as the sequence (P27986 whole entry partner) above
Sequence of p110δ (O00329 whole entry): as the sequence (O00329 whole entry) above
Sequence of p110δ (P27986 whole entry partner): as the sequence (P27986 whole entry partner) above

As to `C[C@H](Nc1ncnc(N)c1C#N)c1nc2c(F)cc(F)cc2n1-c1cccnc1` [4-amino-6-(((1S)-1-(4,6-difluoro-1-(3-pyridinyl)-1H-benzimidazol-2-yl)ethyl)amino)-5-pyrimidinecarbonitrile], the Ki at PI3k δ was found to be 6.74 nM.
Still for that read-out and setting: with `C[C@H](Nc1ncnc(N)c1C#N)c1nc2c(F)cccc2n1-c1cncc(F)c1` [4-amino-6-(((1S)-1-(4-fluoro-1-(5-fluoro-3-pyridinyl)-1H-benzimidazol-2-yl)ethyl)amino)-5-pyrimidinecarbonitrile] the figure was 47 nM; with `C[C@H](Nc1ncnc(N)c1C#N)c1nc2cc(F)c(F)cc2n1-c1cncc(F)c1` [4-amino-6-(((1S)-1-(5,6-difluoro-1-(5-fluoro-3-pyridinyl)-1H-benzimidazol-2-yl)ethyl)amino)-5-pyrimidinecarbonitrile], 57.5 nM; with `C[C@H](Nc1ncnc(N)c1C#N)c1nc2cccc(C(=O)N3CCN(C)CC3)n2c1-c1ccccc1` [4-amino-6-(((1S)-1-(5-((4-methyl-1-piperazinyl)carbonyl)-3-phenylimidazo[1,2-a]pyridin-2-yl)ethyl)amino)-5-pyrimidinecarbonitrile], 11.8 nM.
Turning to `CSc1cccc(-n2c([C@H](C)Nc3ncnc(N)c3C#N)nc3cc(F)ccc32)c1` [4-amino-6-(((1S)-1-(5-fluoro-1-(3-(methylsulfanyl)phenyl)-1H-benzimidazol-2-yl)ethyl)amino)-5-pyrimidinecarbonitrile], at PI3k δ, the Ki came to 44.1 nM.
As for `C[C@H](Nc1ncnc(N)c1C#N)c1nc2cc(F)ccc2n1-c1cncc(F)c1` [4-amino-6-(((1S)-1-(5-fluoro-1-(5-fluoro-3-pyridinyl)-1H-benzimidazol-2-yl)ethyl)amino)-5-pyrimidinecarbonitrile], the Ki at PI3k δ came to 96.4 nM.
Still for that read-out and setting: under `C[C@H](Nc1ncnc(N)c1C#N)c1nc2cc(F)ccc2n1-c1ccccc1` [4-amino-6-(((1S)-1-(5-fluoro-1-phenyl-1H-benzimidazol-2-yl)ethyl)amino)-5-pyrimidinecarbonitrile] stands 1.7 nM; under `C[C@H](Nc1ncnc(N)c1C#N)c1nc2ccc(Cl)cc2n1-c1cc(F)cc(F)c1` [4-amino-6-(((1S)-1-(6-chloro-1-(3,5-difluorophenyl)-1H-benzimidazol-2-yl)ethyl)amino)-5-pyrimidinecarbonitrile], 2.7 nM; under `C[C@H](Nc1ncnc(N)c1C#N)c1nc2ccc(F)cc2n1-c1cccc(-c2ccccn2)c1` [4-amino-6-(((1S)-1-(6-fluoro-1-(3-(2-pyridinyl)phenyl)-1H-benzimidazol-2-yl)ethyl)amino)-5-pyrimidinecarbonitrile], 8.9 nM and 3.8 nM.
In the case of `C[C@H](Nc1ncnc(N)c1C#N)c1nc2ccc(F)cc2n1-c1cccc(F)n1` [4-amino-6-(((1S)-1-(6-fluoro-1-(6-fluoro-2-pyridinyl)-1H-benzimidazol-2-yl)ethyl)amino)-5-pyrimidinecarbonitrile], the inhibition constant (Ki) at PI3k δ was determined as 8.89 nM.
On the same count and under the same terms, under `C[C@H](Nc1ncnc(N)c1C#N)c1nc2cccc(S(C)(=O)=O)c2[nH]1` [4-amino-6-(((1S)-1-(7-(methylsulfonyl)-1H-benzimidazol-2-yl)ethyl)amino)-5-pyrimidinecarbonitrile] stands 45.5 nM; under `C[C@H](Nc1ncnc(N)c1C#N)c1nc2cccc(Br)c2n1-c1cncc(F)c1` [4-amino-6-(((1S)-1-(7-bromo-1-(5-fluoro-3-pyridinyl)-1H-benzimidazol-2-yl)ethyl)amino)-5-pyrimidinecarbonitrile], 48.1 nM; under `C[C@H](Nc1ncnc(N)c1C#N)c1nc2cccc(F)c2[nH]1` [4-amino-6-(((1S)-1-(7-fluoro-1H-benzimidazol-2-yl)ethyl)amino)-5-pyrimidinecarbonitrile], 173 nM.
On to `N#Cc1c(N)ncnc1NCc1nc2c(Cl)cccn2c1-c1ccccc1` [4-amino-6-(((8-chloro-3-phenylimidazo[1,2-a]pyridin-2-yl)methyl)amino)-5-pyrimidinecarbonitrile], for which the Ki on PI3k δ came out at 230 nM.
Turning to `O=C1NC(=O)/C(=C\c2ccc3nccnc3c2)S1` [AS 605240], the “efficacy in a mouse model of rheumatoid arthritis” value in assay [1] is on record as “efficacious”. For the same compound, the “onset of disease in a model of systemic lupus erythematosis” value in assay [2] is on record as “delay onset of disease”.
Regarding `Cc1ccccc1-n1c(Cn2cnc3c(N)ncnc32)nc2cccc(C)c2c1=O` [IC87114], at p110δ, the “inhibition of p110δ” value is recorded as “high nanomolar range (triple digit)”. For the same compound, the “inflammation and disease in a murine model of asthma” value in the assay on murine model of asthma was “significantly ameliorate inflammation and disease”. Moreover, the “activity against any protein kinases tested” value with protein kinases was “no activity”.
As for `C[C@@H](Nc1ncnc(N)c1C#N)c1nc2ccc(F)cc2n1-c1cncc(NS(C)(=O)=O)c1` [N-(5-(2-((1R)-1-((6-amino-5-cyano-4-pyrimidinyl)amino)ethyl)-6-fluoro-1H-benzimidazol-1-yl)-3-pyridinyl)methanesulfonamide], the Ki at PI3k δ came to 600 nM.
Turning to `C[C@H](Nc1ncnc(N)c1C#N)c1nc2ccc(F)cc2n1-c1cncc(NS(C)(=O)=O)c1` [N-(5-(2-((1S)-1-((6-amino-5-cyano-4-pyrimidinyl)amino)ethyl)-6-fluoro-1H-benzimidazol-1-yl)-3-pyridinyl)methanesulfonamide], the Ki at PI3k δ turned out to be 11.9 nM.
On the same count and under the same terms, under `CC[C@H](Nc1ncnc2[nH]cnc12)c1nc2cccc(C(F)(F)F)c2n1CC1CC1` [N-((1S)-1-(1-(cyclopropylmethyl)-7-(trifluoromethyl)-1H-benzimidazol-2-yl)propyl)-9H-purin-6-amine] stands 100 nM; under `C[C@H](Nc1ncnc2[nH]cnc12)c1nc2ccc(Cl)cc2n1-c1cc(F)cc(F)c1` [N-((1S)-1-(6-chloro-1-(3,5-difluorophenyl)-1H-benzimidazol-2-yl)ethyl)-9H-purin-6-amine], 8.4 nM; under `C[C@H](Nc1ncnc2[nH]cnc12)c1nc2ccc(F)cc2n1-c1cccc(F)c1` [N-((1S)-1-(6-fluoro-1-(3-fluorophenyl)-1H-benzimidazol-2-yl)ethyl)-9H-purin-6-amine], 2.7 nM.
For `C[C@H](Nc1ncnc2[nH]cnc12)c1nc2ccc(F)cc2n1-c1cncc(F)c1` [N-((1S)-1-(6-fluoro-1-(5-fluoro-3-pyridinyl)-1H-benzimidazol-2-yl)ethyl)-9H-purin-6-amine], the Ki on PI3k δ is 3.77 nM.
Consider `C[C@H](Nc1ncnc2[nH]cnc12)c1nc2cccc(F)c2[nH]1` [N-((1S)-1-(7-fluoro-1H-benzimidazol-2-yl)ethyl)-9H-purin-6-amine], for which the Ki at PI3k δ is 650 nM.
With `Cc1cc(C(C)Nc2ccccc2)c2nc(N3CCOCC3)cc(=O)n2c1` (centres unmarked) [TGX-221], in assay [3] (beta over delta), the selectivity over delta is listed as 14 fold. For the same compound, the “selectivity over gamma and alpha” value in assay [3] (beta over gamma and alpha) was “more than 500 fold”. Also, the potency on beta on P110β is 7 nM.
With `COC(=O)c1cccc2nc([C@H](C)Nc3ncnc(N)c3C#N)c(-c3cccnc3)n12` [methyl 2-((1S)-1-((6-amino-5-cyano-4-pyrimidinyl)amino)ethyl)-3-(3-pyridinyl)imidazo[1,2-a]pyridine-5-carboxylate], on PI3k δ, the Ki worked out at 147 nM.
Same read-out and setting: under `COC(=O)c1cccc2nc([C@H](C)Nc3ncnc(N)c3C#N)c(-c3cncc(F)c3)n12` [methyl 2-((1S)-1-((6-amino-5-cyano-4-pyrimidinyl)amino)ethyl)-3-(5-fluoro-3-pyridinyl)imidazo[1,2-a]pyridine-5-carboxylate] stands 314 nM.
The same measure, in the same setting: under `COC(=O)c1cccc2nc([C@H](C)Nc3ncnc(N)c3C#N)c(-c3ccccc3)n12` [methyl 2-((1S)-1-((6-amino-5-cyano-4-pyrimidinyl)amino)ethyl)-3-phenylimidazo[1,2-a]pyridine-5-carboxylate] stands 39 nM.

Source of the values: patent US8575183B2, “Heterocyclic compounds and their uses” (priority 2010, dated 2013).
